# How the values were obtained:
# [1] = test system: ER + (HER2 −) locally advanced or metastatic breast cancer; test: Anti-tumor activity per RECIST v1.1 (best confirmed overall outcome, clinical benefit rate, progression-free survival), phase Ia/Ib/IIa study; type: in vivo, human
# Source text: This was a multi-institutional phase Ia/Ib/IIa, open-label, dose finding, safety, pharmacokinetics, and proof-of-concept study of GDC-0810 in women with ER + metastatic breast cancer. Phase Ia employed a standard 3 + 3 dose-escalation scheme. Phase Ib was dose escalation as part of combination treatment. Phase IIa explored the recommended phase 2 dose (RP2D) from phase Ia. The protocol was approved by institutional review boards (IRBs) at participating institutions. Written informed consent was obtained from patients prior to performing any procedures; the study was conducted in accordance with the principles of the Declaration of Helsinki and Good Clinical Practice.
# (§1) Blood samples were collected for pharmacokinetic assessments. Tumor assessments were performed at screening and every 8 weeks from cycle 1, day 1 (C1D1). Radiographic assessment of objective tumor response or disease progression was based on Response Evaluation Criteria in Solid Tumors (RECIST v1.1). Transvaginal ultrasound scans were performed to monitor endometrial thickness at screening, at every 6 months from C1D1, and at the end of treatment. Imaging with [^18F]-fluoroestradiol positron emission tomography (FES-PET) was performed to quantify ER expression in tumors and to assess for pharmacodynamic response. Further assessment details are provided in Supplementary Methods.
# Analyses of safety, pharmacokinetics, anti-tumor activity, and data from the FES-PET imaging correlative studies were planned. Confirmatory inferential analyses and imputation for missing data were not planned due to the exploratory nature of this study. Descriptive statistics were used to summarize patient data. The number of patients to be enrolled was dependent upon the observed safety and pharmacokinetic profile during dose escalations. The safety- and efficacy-evaluable population included patients who received at least one dose of the study drug. Safety was assessed through summaries of DLTs, AEs, changes in select laboratory test results, vital signs, ECGs, and changes in endometrial thickness. Objective response (with confirmation) and clinical benefit rates (CBR) were derived per RECIST v1.1 and summarized by dose level and cohort.
# CYP2B6 and CYP2C enzymes. No hormonal therapy, chemotherapy, immunotherapy, or experimental anti-cancer medications were permitted during the study. […]
# (§2) Tumor assessments were performed at screening and every 8 weeks from cycle-1, day-1 (C1D1). Radiographic assessment of objective tumor response or disease progression was based on Response Evaluation Criteria in Solid Tumors (RECIST v1.1). Transvaginal ultrasound scans were performed to monitor endometrial thickness at screening, at every 6 months from C1D1, and at the end of treatment. […]
# [2] = Endometrial thickness by transvaginal ultrasound; type: in vivo, human
# Experimental: as §1, with “Methods. […]” for “Methods.”
# as §2
# [3] = all patients, phase IIa A1, 600 mg QD, n = 19
# [4] = all patients, phase IIa A2, 600 mg QD, n = 10
# [5] = all patients, phase IIa B1, 600 mg QD, n = 53
# [6] = all patients, phase IIa B2, 600 mg QD, n = 19
# [7] = all patients, phase Ia cohorts 1–9, 100–800-mg BID, 300–400-mg QD, n = 41
# [8] = all patients, phase Ib C1, 400 mg QD + PALBO, n = 4
# [9] = all patients, phase Ib D1, 600 mg QD + LHRH-A, n = 6
# [10] = overall, 3 study phases (152 patients)
# [11] = patients (n = 77) with tumors harboring ESR1 mutations
# [12] = patients with tumors harboring ESR1 mutations
# [13] = tumors harboring ESR1 mutations, phase IIa A1, 600 mg QD, n = 19
# [14] = tumors harboring ESR1 mutations, phase IIa A2, 600 mg QD, n = 9
# [15] = tumors harboring ESR1 mutations, phase IIa B1, 600 mg QD, n = 20
# [16] = tumors harboring ESR1 mutations, phase IIa B2, 600 mg QD, n = 4
# [17] = tumors harboring ESR1 mutations, phase Ia cohorts 1–9, 100–800-mg BID, 300–400-mg QD, n = 23
# [18] = tumors harboring ESR1 mutations, phase Ib D1, 600 mg QD + LHRH-A, n = 2
smiles,measurement,setting,value
CC/C(=C(/c1ccc(/C=C/C(=O)O)cc1)c1ccc2[nH]ncc2c1)c1ccc(F)cc1Cl [GDC-0810],CBR,[1]; 17 patients in phase Ia previously treated with fulvestrant,35%
same,median time to event (median PFS),[1]; 54 patients in study phases Ib/IIa with tumors harboring ESR1 mutations,3.5 months
same,median time to event (median PFS),[1]; 111 patients in study phases Ib/IIa,3.5 months
same,Missing or unevaluable,[1]; [3],1 (5%) n (%)
same,Non-complete response/non-progressive disease,[1]; [3],5 (26%) n (%)
same,Partial response,[1]; [3],0 n (%)
same,Progressive disease,[1]; [3],9 (47%) n (%)
same,Stable disease,[1]; [3],4 (21%) n (%)
same,Missing or unevaluable,[1]; [4],2 (20%) n (%)
same,Non-complete response/non-progressive disease,[1]; [4],0 n (%)
same,Partial response,[1]; [4],0 n (%)
same,Progressive disease,[1]; [4],4 (40%) n (%)
same,Stable disease,[1]; [4],4 (40%) n (%)
same,Missing or unevaluable,[1]; [5],3 (6%) n (%)
same,Non-complete response/non-progressive disease,[1]; [5],8 (15%) n (%)
same,Partial response,[1]; [5],4 (8%) n (%)
same,Progressive disease,[1]; [5],21 (40%) n (%)
same,Stable disease,[1]; [5],17 (32%) n (%)
same,Missing or unevaluable,[1]; [6],0 n (%)
same,Non-complete response/non-progressive disease,[1]; [6],4 (21%) n (%)
same,Partial response,[1]; [6],0 n (%)
same,Progressive disease,[1]; [6],11 (58%) n (%)
same,Stable disease,[1]; [6],4 (21%) n (%)
same,Non-complete response/non-progressive disease,[1]; [7],0 n (%)
same,Partial response,[1]; [7],2 (5%) n (%)
same,Progressive disease,[1]; [7],12 (29%) n (%)
same,Stable disease,[1]; [7],26 (63%) n (%)
same,Missing or unevaluable,[1]; [8],0 n (%)
same,Non-complete response/non-progressive disease,[1]; [8],1 (25%) n (%)
same,Partial response,[1]; [8],0 n (%)
same,Progressive disease,[1]; [8],1 (25%) n (%)
same,Stable disease,[1]; [8],2 (50%) n (%)
same,Missing or unevaluable,[1]; [9],0 n (%)
same,Non-complete response/non-progressive disease,[1]; [9],1 (17%) n (%)
same,Partial response,[1]; [9],0 n (%)
same,Progressive disease,[1]; [9],3 (50%) n (%)
same,Stable disease,[1]; [9],2 (33%) n (%)
same,Progressive disease,[1]; overall population,40%
same,Stable disease,[1]; overall population,39%
same,missing/unevaluable,[1]; overall population,5%
same,non-complete response/non-progressive disease,[1]; overall population,13%
same,partial responses,[1]; overall population,4%
same,Progressive disease,[1]; [10],61 (40%) n (%)
same,Stable disease,[1]; [10],59 (39%) n (%)
same,non-complete response/non-progressive disease,[1]; [10],19 (13%) n (%)
same,partial responses,[1]; [10],6 (4%) n (%)
same,CBR,"[1]; overall, 3 study phases, n = 40",26%
same,Progressive disease,[1]; [11],29 (38%) n (%)
same,Stable disease,[1]; [11],32 (42%) n (%)
same,missing/unevaluable,[1]; [11],4 (5%) n (%)
same,non-complete response/non-progressive disease,[1]; [11],9 (12%) n (%)
same,partial responses,[1]; [11],3 (4%) n (%)
same,Progressive disease,[1]; [12],38%
same,Stable disease,[1]; [12],42%
same,missing/unevaluable,[1]; [12],5%
same,non-complete response/non-progressive disease,[1]; [12],12%
same,partial responses,[1]; [12],4%
same,CBR (responses or SD lasting ≥ 24 weeks),"[1]; phase Ia dose escalation, 16 patients",39%
same,Missing or unevaluable,[1]; phases Ib and IIa (n = 111),6 (5%) n (%)
same,"PD, best confirmed overall outcome",[1]; phases Ib and IIa (n = 111),49 (44%) n (%)
same,non-complete response or non-progressive disease (non CR/PD),[1]; phases Ib and IIa (n = 111),19 (17%) n (%)
same,CBR,"[1]; phases Ib combination treatments and IIa expansion cohorts (n = 111), n = 24",22%
same,CBR,"[1]; tumors harboring ESR1 mutations, phase Ib/IIa (8 of 54 patients)",15%
same,Missing or unevaluable,[1]; [13],1 (5%) n (%)
same,Non-complete response/non-progressive disease,[1]; [13],5 (26%) n (%)
same,Partial response,[1]; [13],0 n (%)
same,Progressive disease,[1]; [13],9 (47%) n (%)
same,Stable disease,[1]; [13],4 (21%) n (%)
same,Missing or unevaluable,[1]; [14],2 (22%) n (%)
same,Non-complete response/non-progressive disease,[1]; [14],0 n (%)
same,Partial response,[1]; [14],0 n (%)
same,Progressive disease,[1]; [14],4 (44%) n (%)
same,Stable disease,[1]; [14],3 (33%) n (%)
same,Missing or unevaluable,[1]; [15],1 (5%) n (%)
same,Non-complete response/non-progressive disease,[1]; [15],3 (15%) n (%)
same,Partial response,[1]; [15],1 (5%) n (%)
same,Progressive disease,[1]; [15],7 (35%) n (%)
same,Stable disease,[1]; [15],8 (40%) n (%)
same,Missing or unevaluable,[1]; [16],0 n (%)
same,Non-complete response/non-progressive disease,[1]; [16],1 (25%) n (%)
same,Partial response,[1]; [16],0 n (%)
same,Progressive disease,[1]; [16],2 (50%) n (%)
same,Stable disease,[1]; [16],1 (25%) n (%)
same,Missing or unevaluable,[1]; [17],0 n (%)
same,Non-complete response/non-progressive disease,[1]; [17],0 n (%)
same,Partial response,[1]; [17],2 (9%) n (%)
same,Progressive disease,[1]; [17],6 (26%) n (%)
same,Stable disease,[1]; [17],15 (65%) n (%)
same,Missing or unevaluable,[1]; [18],0 n (%)
same,Non-complete response/non-progressive disease,[1]; [18],0 n (%)
same,Partial response,[1]; [18],0 n (%)
same,Progressive disease,[1]; [18],1 (50%) n (%)
same,Stable disease,[1]; [18],1 (50%) n (%)
same,patients with an increase in the thickness of endometrium compared to baseline,[2]; 10 patients in phase Ia with baseline and at least one follow-up scan,9 (90%) n (%)
same,"change in endometrial thickness, range",[2]; phase Ia,0 to 11 mm
same,mean change in endometrial thickness,[2]; phase Ia,4.4 mm
same,median change in endometrial thickness,[2]; phase Ia,3.5 mm
